Laboratory results taken from patent US10106542B2, “Substituted 6,7-dihydropyrazolo[1,5-a]pyrazines as negative allosteric modulators of mGluR2 receptors” (Janssen Pharmaceutica NV, priority 2013, dated 2018).
Counter-ions that a name gives are not always drawn.

Key:
human mGlu2 receptor = molecular target: T1, human mGlu2 receptor (Homo sapiens, UniProt Q14416); test: [35S]GTPγS binding assay (mGluR2 negative allosteric modulation); type: biochemical; conditions: for IC50: membranes from CHO cells transfected with human mGlu2 receptor, glutamate 60 μM, pIC50 = −log IC50 (M), read-out: GTPγS - hmGluR2 anGT pIC50 (converted); for Emax: relative maximal effect: maximal % inhibition relative to the control glutamate response, read-out: GTPγS - hmGluR2 anGT Emax
T1 construct: expressed in transfected cells; host or cells: CHO cells (membrane preparation)
Experimental: 1) [^35S]GTPγS binding assay
The [^35S]GTPγS binding assay is a functional membrane-based assay used to study G-protein coupled receptor (GPCR) function whereby incorporation of a non-hydrolysable form of GTP, [^35S]GTPγS (guanosine 5′-triphosphate, labelled with […] ^35S), is measured. The G-protein a subunit catalyzes the exchange of guanosine 5′-diphosphate (GDP) by guanosine triphosphate (GTP) and on activation of the GPCR by an agonist, [^35S]GTPγS, becomes incorporated and cannot be cleaved to continue the exchange cycle (Harper (1998) Current Protocols in Pharmacology 2.6.1-10, John Wiley & Sons, Inc.). […] Here we describe the use of the [^35S]GTPγS binding assay using membranes from cells transfected with the human mGlu2 receptor and adapted from Schaffhauser et al. (Molecular Pharmacology, 2003, […]) for the detection of the negative allosteric modulation (NAM) properties of the compounds of this invention.
CHO-cells were cultured to pre-confluence and stimulated with 5 mM butyrate for 24 h. Cells were then collected by scraping in PBS and cell suspension was centrifuged (10 min at 4000 RPM in benchtop centrifuge). Supernatant was discarded and pellet gently resuspended in 50 mM Tris-HCl, pH 7.4 by mixing with an Ultra Turrax homogenizer. The suspension was centrifuged at 12,400 RPM (Sorvall F14S-6x250Y) for 10 minutes and the supernatant discarded. The pellet was homogenized in 5 mM Tris-HCl, pH 7.4 using an Ultra Turrax homogenizer and centrifuged again (13,000 RPM, 20 min, 4° C.). The final pellet was resuspended in 50 mM Tris-HCl, pH 7.4 and stored at −80° C. in appropriate aliquots before use. Protein concentration was determined by the Bradford method (Bio-Rad, USA) with bovine serum albumin as standard.
Measurement of mGluR2 negative allosteric modulatory activity of test compounds was performed as follows. Test compounds and glutamate were diluted in assay buffer containing 10 mM HEPES acid, 10 mM HEPES salt, pH 7.4, 100 mM NaCl, 3 mM MgCl2 and 10 μM GDP. Human mGlu2 receptor-containing membranes were thawed on ice and diluted in assay buffer supplemented with 18 μg/ml saponin. […] After addition of [^35S]GTPγS (f.c. 0.1 nM), assay mixtures were shaken briefly and further incubated to allow [^35S]GTPγS incorporation on activation (30 minutes, 30° C.). Final assay mixtures contained 7 μg of membrane protein in 10 mM HEPES acid, 10 mM HEPES salt, pH 7.4, 100 mM NaCl, 3 mM MgCl2, 10 μM GDP and 10 μg/ml saponin. Total reaction volume was 200 μl. Reactions were terminated by rapid filtration through Unifilter-96 GF/B plates (Perkin Elmer, Massachusetts, USA) using a 96-well filtermate universal harvester. Filters were washed 6 times with ice-cold 10 mM NaH2PO4/10 mM Na2HPO4, pH 7.4. Filters were then air-dried, and 30 μl of liquid scintillation cocktail (Microscint-O) was added to each well. Membrane-bound radioactivity was counted in a Topcount.
The concentration-response curves of representative compounds of the present invention were generated using the Lexis software interface (developed at J&J). Data were calculated as % of the control glutamate response, defined as the response that is generated upon addition of an EC80-equivalent concentration of glutamate.

T1 sequence (Q14416 19-872): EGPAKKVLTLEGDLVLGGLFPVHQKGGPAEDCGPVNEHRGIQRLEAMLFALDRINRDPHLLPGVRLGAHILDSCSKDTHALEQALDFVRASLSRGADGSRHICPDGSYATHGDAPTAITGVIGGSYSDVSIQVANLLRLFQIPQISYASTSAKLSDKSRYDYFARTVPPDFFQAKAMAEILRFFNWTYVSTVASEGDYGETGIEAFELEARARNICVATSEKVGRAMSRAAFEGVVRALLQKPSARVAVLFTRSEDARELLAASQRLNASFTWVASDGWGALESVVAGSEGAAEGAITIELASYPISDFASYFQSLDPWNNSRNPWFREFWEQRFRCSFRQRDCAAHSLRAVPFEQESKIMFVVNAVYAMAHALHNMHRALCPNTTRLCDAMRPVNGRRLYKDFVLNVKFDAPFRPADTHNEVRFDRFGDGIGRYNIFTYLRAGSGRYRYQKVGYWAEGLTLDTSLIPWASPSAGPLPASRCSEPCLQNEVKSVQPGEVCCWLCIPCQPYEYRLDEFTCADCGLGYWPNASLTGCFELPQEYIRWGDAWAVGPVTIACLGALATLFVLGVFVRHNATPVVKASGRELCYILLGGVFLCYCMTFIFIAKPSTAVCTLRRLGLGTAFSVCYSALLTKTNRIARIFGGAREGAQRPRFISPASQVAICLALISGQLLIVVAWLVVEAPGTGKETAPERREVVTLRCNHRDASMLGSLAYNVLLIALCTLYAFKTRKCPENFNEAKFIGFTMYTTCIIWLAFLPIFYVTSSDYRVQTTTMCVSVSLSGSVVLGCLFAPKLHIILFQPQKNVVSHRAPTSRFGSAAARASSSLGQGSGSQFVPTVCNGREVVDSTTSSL

Row | SMILES | IC50 (human mGlu2 receptor) | Emax (human mGlu2 receptor) | melting point
1 | CC(O)c1cc(-c2cnn3c2C(=O)N(c2ccc(C(F)(F)F)cc2)C[C@@H]3C)ccn1 (stereo partly shown) [compound 128] | 5.89e-07 M | 104% | 139.8 °C
2 | Cc1cc(-c2cnn3c2C(=O)N(c2cc(F)c(C(F)(F)F)c(F)c2)C[C@@H]3C)ccn1 [compound 132] | 2.4e-08 M | 103% | 148 °C
3 | C[C@H]1CN(c2ccc(Cl)c(Cl)c2)C(=O)c2c(-c3ccnc(CO)c3)cnn21 [compound 125, (7S)-5-(3,4-Dichlorophenyl)-3-[2-(hydroxymethyl)-4-pyridyl]-7-methyl-6,7-dihydropyrazolo[1,5-a]pyrazin-4-one] | 1.78e-07 M | 105% | 105.4 °C
4 | C[C@H]1CN(c2ccc(S(F)(F)(F)(F)F)cc2)C(=O)c2c(-c3ccncc3)cnn21 [compound 56] | 1.62e-08 M | 102% | 199 °C
5 | CN(C)c1cc(-c2cnn3c2C(=O)N(c2ccc(Cl)c(Cl)c2)CC3CF)ccn1 (single isomer, unassigned) [compound 90] | 3.09e-09 M | 103% | 93.7 °C
6 | C[C@H]1CN(c2ccc(C(F)(F)F)cc2)C(=O)c2c(-c3ccnc(N4CCCCC4)c3)cnn21 (as salt: HCl) [compound 107] | – | – | 294 °C
7 | COc1ccc(N2C[C@H](C)n3ncc(-c4ccnc(C)c4)c3C2=O)cc1 (as salt: HCl) [compound 38] | – | – | 294 °C
8 | CCOc1ccc(N2C[C@H](C)n3ncc(-c4ccnc(C)c4)c3C2=O)cc1Cl (as salt: HCl) [compound 17] | – | – | > 300 °C
9 | COCc1cc(-c2cnn3c2C(=O)N(c2ccc(C(F)(F)F)cc2)C[C@@H]3C)ccn1 (as salt: HCl) [compound 22] | – | – | 282.3 °C
10 | COc1ccc(N2C[C@H](C)n3ncc(-c4ccnc(C)c4)c3C2=O)cc1Cl (as salt: HCl) [compound 20] | – | – | 293.6 °C

Further lines, results first:

Row | IC50 (human mGlu2 receptor) | Emax (human mGlu2 receptor) | melting point | SMILES
11 | 2.24e-08 M | 107% | 141.3 °C | CCOc1nc(N2C[C@H](C)n3ncc(-c4ccncc4)c3C2=O)ccc1C(F)(F)F [compound 208]
12 | 2.29e-08 M | 103% | 125.6 °C | CNc1cc(-c2cnn3c2C(=O)N(c2ccc(C(F)(F)F)c(OC)c2)C[C@@H]3C)ccn1 [compound 183]
13 | 4.07e-09 M | 108% | 161.4 °C | Cc1cc(-c2cnn3c2C(=O)N(c2ccc(C(F)(F)F)c(Cl)n2)C[C@@H]3C)ccn1 [compound 188, (7S)-5-[6-chloro-5-(trifluoromethyl)-2-pyridyl]-7-methyl-3-(2-methyl-4-pyridyl)-6,7-dihydropyrazolo[1,5-a]pyrazin-4-one]
14 | – | – | 173.9 °C | CC(C)Oc1cc(-c2cnn3c2C(=O)N(c2ccc(C(F)(F)F)cc2)C[C@@H]3C)ccn1 (as salt: HCl) [compound 138]
15 | – | – | 193.8 °C | CC(C)Oc1cc(-c2cnn3c2C(=O)N(c2ccc(Cl)c(Cl)c2)C[C@@H]3C)ccn1 (as salt: HCl) [compound 137]
16 | – | – | > 300 °C | Cc1cc(-c2cnn3c2C(=O)N(c2ccc(SC(F)(F)F)cc2)C[C@@H]3C)ccn1 (as salt: HCl) [compound 236]
17 | – | – | 191.5 °C | CCOc1cc(-c2cnn3c2C(=O)N(c2ccc(Cl)c(Cl)c2)C[C@@H]3C)ccn1 (as salt: HCl) [compound 133]
18 | 7.24e-08 M | 107% | – | Cc1cc(-c2cnn3c2C(=O)N(c2ccc(Cl)c(Cl)c2)C[C@@H]3C)cc[n+]1[O-] [compound 170, (7S)-5-(3,4-dichlorophenyl)-7-methyl-3-(2-methyl-1-oxido-pyridin-1-ium-4-yl)-6,7-dihydropyrazolo[1,5-a]pyrazin-4-one]
19 | 1.38e-07 M | 107% | – | Cc1cc(-c2cnn3c2C(=O)N(c2ccc(C(F)(F)F)cn2)C[C@@H]3C)cc(C)n1 [compound 194]
